Assays:
[1] = tested on: Listeria innocua; experiment: Attached cells challenge test on produce leaves (Example 1); assay type: cell-based
[2] = tested on: E. coli K-12 (ATCC 25253); experiment: Attached cells on chicken wing skin (Example 8); assay type: cell-based; details: Middle chicken wing skin, 10.5 min
Procedure: (§1) Inoculum preparation: ATCC freeze dried culture was rehydrated in 10 mL of sterilized TSB and mixed homogeneously. 0.1 mL of the stock solution was transferred to 10 mL of TSB and incubated at 37C for 24 h. Enrichment was streaked to confirm purity. 2 mL of the enriched stock was transferred to 200 mL of TSB and incubated at 37C for 24 h for E. coli K-12 (ATCC 25253) (EC) resulting in ˜10^8 cfu/mL stationary phase culture stock. The stock was cooled at 4C for 1 h. Microbial population of the stationary phase stock culture was enumerated by means of serial dilution with 9-mL Butterfield phosphate buffer tubes and spread plating on Tryptic Soy Agar (TSA) pre-poured agar plates for EC
Chicken wing surface inoculation: The 200 mL ˜10^8cfu/mL stock culture solution was homogeneously mixed by shaking and swirling the Erlenmeyer flask. The 200 mL culture was separated into 4 centrifuge tubes (50 mL each) and centrifuged at 10,000 rpm and 4C for 15 min. The stock culture pellet was re-suspended with 5 mL of 5% Horse Serum. All the re-suspended cultures from the four centrifuge tubes were combined to form 20 mL˜10^9 cfu/mL inoculating stock culture. The chicken middle wing was pat dried by paper towel. A permanent marker was used to mark a 2.5 cm×2.5 cm square at the middle of the flat surface of the chicken wing for inoculation. 50 uL inoculum in the form of 2 uL droplets were spiked onto the marked square on the chicken wing skin. The inoculated chicken wing was placed into a sterile polypropylene basket. The spiked chicken wing inside the polypropylene basket was dried inside a biological safety cabinet for 120 min at 18 to 24C.
Treatment of inoculated chicken wing: Each sample of inoculated chicken wing was placed into a 2.5L stomacher bag containing 500 mL of the tested solution for 10 minutes with intermittent 30 s-shakings at 0, 4, and 9 min. The tested solutions included city water, lactic acid solution (LA), peracetic acid solution (PA), and FreshRinse solution (FR). The treated chicken wing was immediately removed from the treatment solution after 10 min and placed into a sterilized Petri-dish with the marked side facing up. A pre-wet sterilized swab dipped in 10 mL Butterfield phosphate buffer with sodium thiosulfate was used to swab the marked area. After swabbing the cotton wool swab was immediately placed back into the 10 mL Butterfield phosphate buffer with sodium thiosulfate and mixed. One mL was immediately transferred from the aforementioned tube to a 9 mL Butterfield phosphate buffer. The total treatment time including the exposure time, the swabbing time, and the transfer time was 10.5 min. Each solution treatment was performed in duplications. The reduction for each solution treatment was compared to that of the city water treatment

[3] = tested on: E. coli K-12 (ATCC 25253); experiment: Attached cells on vegetable and fruit surface (Example 7); assay type: cell-based; details: 45 sec
Procedure: as §1, with “of sterilized tryptic soy broth and mixed” for “of sterilized TSB and mixed”, “24 h and 36 h, respectively for E.” for “24 h for E.”, “25253) (EC) and Listeria innocua (ATCC 33090) (LI) resulting in” for “25253) (EC) resulting in”, “was cooled for at 4C” for “was cooled at 4C”, “for EC or Modified Oxford Agar (MOX) pre-poured agar plates for LI.” for “for EC”
(§2) Vegetable and fruit surface inoculation: The 200 mL˜10^8 cfu/mL stock culture solution was homogeneously mixed by shaking and swirling the Erlenmeyer flask. The 200 mL culture was separated into 4 centrifuge tubes (50 mL each) and centrifuged at 10,000 rpm and 4C for 15 min. The stock culture pellet was re-suspended with 5 mL of 5% Horse Serum. All the re-suspended cultures from the four centrifuge tubes were combined to form 20 mL˜10^9 cfu/mL inoculating stock culture. The outer peel or surface of the test vegetable and fruit was cut into 5cm×2.5 cm pieces or diced into […] cubes in the case of tomatoes for inoculation. 50 uL inoculum in the form of 2 uL droplets were spiked onto the strawberry, and diced tomato surface while 100 uL in the form of 2 uL droplets were inoculated onto the potato peel. The spiked surfaces or peels were placed in a biological safety cabinet for 60 min at 18 to 24C for drying.
(§3) Treatment of inoculated vegetable and fruit surfaces: Each sample of inoculated vegetable or fruit surface was placed into a 2.5L stomacher bag containing 500 mL of the tested solution and shook vigorously for 45 s. The tested solutions included city water, lactic acid solution (LA), peracetic acid solution (PA), and FreshRinse solution (FR). The treated vegetable or fruit surface was immediately transferred into a sterile stomacher bag containing 100 mL of Butterfield phosphate buffer with 1 sodium thiosulfate pellet at the end of the 45 s treatment. Each solution treatment was performed in duplications. The reduction for each solution treatment was compared to that of the city water treatment.

[4] = tested on: Listeria innocua (ATCC 33090); experiment: as above; assay type: cell-based; details: Whole Strawberry, 45 sec
Procedure: as §1, with “of sterilized tryptic soy broth and mixed” for “of sterilized TSB and mixed”, “24 h and 36 h, respectively for E.” for “24 h for E.”, “25253) (EC) and Listeria innocua (ATCC 33090) (LI) resulting in” for “25253) (EC) resulting in”, “was cooled for at 4C” for “was cooled at 4C”, “for EC or Modified Oxford Agar (MOX) pre-poured agar plates for LI.” for “for EC”
as §2, §3

[5] = 40° C.; cited from earlier work

**Q.** Which “Log reduction, attached cells” value ([1]; Romaine, PAA 0 ppm, LA 0.6%) does the source give for `CC(O)C(=O)O` (centres unmarked) [Lactic Acid, lactic acid] here?
**A.** Its value is 1.1.

**Q.** And the “Log reduction, attached cells” value ([1]; Romaine, PAA 0 ppm, LA 0.9%)?
**A.** Its value is 1.4.

**Q.** And the “Log reduction, attached cells” value ([1]; Romaine, PAA 0 ppm, LA 1.2%)?
**A.** The value was 1.5.

**Q.** What about the “Log reduction, attached cells” value ([1]; Spinach, PAA 0 ppm, LA 0.6%) of the same compound?
**A.** Its value is 0.1.

**Q.** And the “Log reduction, attached cells” value ([1]; Spinach, PAA 0 ppm, LA 0.9%)?
**A.** The value was 0.2.

**Q.** What about the “Log reduction, attached cells” value ([1]; Spinach, PAA 0 ppm, LA 1.2%) of the same compound?
**A.** Its value is 0.2.

**Q.** What about the Log reductions ([2]; PA 0 ppm, LA 5,000 ppm) of the same compound?
**A.** The Log reductions was 0.3.

**Q.** And the Log reductions ([2]; PA 0 ppm, LA 10,000 ppm)?
**A.** Its Log reductions is 0.7.

**Q.** What about the Log reductions ([3]; Diced Tomato, PA 0 ppm, LA 1,500 ppm) of the same compound?
**A.** Its Log reductions is 0.1.

**Q.** What about the Log reductions ([3]; Diced Tomato, PA 0 ppm, LA 3,000 ppm) of the same compound?
**A.** The Log reductions was 0.0.

**Q.** What about the Log reductions ([3]; Potato peel, PA 0 ppm, LA 1,500 ppm) of the same compound?
**A.** Its Log reductions is 0.1.

**Q.** What about the Log reductions ([3]; Potato peel, PA 0 ppm, LA 3,000 ppm) of the same compound?
**A.** The Log reductions was 0.0.

**Q.** And the Log reductions ([4]; PA 0 ppm, LA 1,500 ppm)?
**A.** Its Log reductions is 0.0.

**Q.** And the Log reductions ([4]; PA 0 ppm, LA 3,000 ppm)?
**A.** The Log reductions was 0.5.

**Q.** Which “apparent equilibrium constant, Kap” value [5] does the source give for `CC(=O)OO` [Peroxyacetic acid, peroxyacetic acid] here?
**A.** Its value is “about 2.21”.

**Q.** And the “Log reduction, attached cells” value ([1]; Romaine, PAA 60 ppm, LA 0.0%)?
**A.** Its value is 0.6.

**Q.** What about the “Log reduction, attached cells” value ([1]; Romaine, PAA 70 ppm, LA 0.0%) of the same compound?
**A.** Its value is 1.0.

**Q.** And the “Log reduction, attached cells” value ([1]; Romaine, PAA 80 ppm, LA 0.0%)?
**A.** The value was 1.7.

**Q.** And the “Log reduction, attached cells” value ([1]; Spinach, PAA 60 ppm, LA 0.0%)?
**A.** Its value is 0.3.

**Q.** What about the “Log reduction, attached cells” value ([1]; Spinach, PAA 70 ppm, LA 0.0%) of the same compound?
**A.** Its value is 0.5.

**Q.** And the “Log reduction, attached cells” value ([1]; Spinach, PAA 80 ppm, LA 0.0%)?
**A.** The value was 1.2.

**Q.** And the Log reductions ([2]; PA 40 ppm, LA 0 ppm)?
**A.** Its Log reductions is 0.6.

**Q.** What about the Log reductions ([2]; PA 60 ppm, LA 0 ppm) of the same compound?
**A.** Its Log reductions is 0.5.

**Q.** What about the Log reductions ([2]; PA 80 ppm, LA 0 ppm) of the same compound?
**A.** Its Log reductions is 1.0.

**Q.** And the Log reductions ([3]; Diced Tomato, PA 60 ppm, LA 0 ppm)?
**A.** The Log reductions was 0.6.

**Q.** And the Log reductions ([3]; Diced Tomato, PA 80 ppm, LA 0 ppm)?
**A.** The Log reductions was 0.7.

**Q.** What about the Log reductions ([3]; Potato peel, PA 60 ppm, LA 0 ppm) of the same compound?
**A.** The Log reductions was 1.0.

**Q.** And the Log reductions ([3]; Potato peel, PA 80 ppm, LA 0 ppm)?
**A.** The Log reductions was 1.2.

**Q.** What about the Log reductions ([4]; PA 50 ppm, LA 0 ppm) of the same compound?
**A.** The Log reductions was 1.1.
